Like-named read-outs stand apart in the source and are kept apart here.

The subject of test [1] is 3-Chlorobenzoate Dechlorination Activity. Kind of test: Induction of 3-chlorobenzoate dechlorination activity by growth with 3-chlorobenzoate, analogues, or chloro- and iodobenzoates (Tables 4, 5). The test is classed as cell-based, Desulfomonile tiedjei. As to the method: Table 4. Cultures were grown in the presence of 3-chlorobenzoate or a 3-chlorobenzoate analogue substituted at the 1- or 3- position with the indicated functional groups. After several generations the culture were concentrated, washed and resuspended in anaerobic buffered salts containing 1 mM 3-chlorobenzoate and 10 mM pyruvate (as electron donor). […] After two hours samples were taken for benzoate analysis by HPLC. Values presented are the average of duplicate or triplicate cultures ± sample standard deviation.
Table 5. Chloro- and iodobenzoates were tested as inducers of 3-chlorobenzoate dehalogenation activity as described in the legend to Table 4. All compounds were initially at 500 μM; the 3-halo compounds were amended during growth as they were dehalogenated. Values presented are the average of duplicate or triplicate cultures± sample standard deviation.

The subject of test [2] is Dechlorination of 3-Chlorobenzoate. Kind of test: Dechlorination of 3-chlorobenzoate in the presence of various analogues by induced cells (Table 6). It is filed as cell-based. As to conditions: Desulfomonile tiedjei, read-out: dechlorination of 3-chlorobenzoate in the presence of analogue, % of Control. As to the method:
[…]. 3-fluorobenzoate induced cultures were washed and resuspended essentially as described in the legend to […] with 100 μM 3-chlorobenzoate and the indicated analogues at 500 μM. Dechlorination rates were normalized to the rate in assays with no analogue to obtain the values presented.

A further test deals with dechlorination of 3CB. As to conditions: cited from earlier work.
In test [3] the test system is Desulfomonile tiedjei cells. Kind of test: Effect of different medium reductants and sterilant on PCE dechlorination by induced cells (Table 2). It is filed as cell-based. As to conditions: formaldehyde, final concentration 0.2%. On the procedure:
(§1) The concentration of nicotinamide and 1,4-naphthoquinone were 500 μgl^-1 and 200 μgl^-1, respectively. Thiamine, hemin and lipoic acid were used at 50 μg/liter. To induce 3-chlorobenzoate dechlorination activity, 3-fluorobenzoate was added to 0.1 mM. The complete medium was inoculated with a 1% transfer from homologous medium (without fluorobenzoate). Cultures were grown at 37° C. in the dark for about 14 days for fresh cells or 28 days for starved stationary phase cells.
(§2) Cultures were harvested by centrifugation and resuspended in 20 to 40% of the initial volume in a cold anaerobic assay buffer normally consisting of 50 mM NaCl, 10 mM sodium pyruvate, 10 mM HEPES (N-2[hydroxyethylP]piperazine-N'-[2-ethanesulfonic acid], hemisodium salt Sigma);, 0.00001% resazurin and reduced with 1 mM cysteine-HCl and 1 mM titanium (III) citrate. Resuspended cells were used to completely fill N2 sparged 10 ml serum bottles after which chlorinated ethylenes were added from a 0.5 or 1 mg/ml stock in methanol for PCE and TCE respectively. The vials were immediately sealed with Teflon lined rubber septa and aluminum crimp seals, leaving no headspace. The assays were commenced by transferring the serum bottles to a 37° C. water bath. The assays were terminated at the indicated times by transferring the serum bottles to an ice water bath, where they were stored until analyzed.
(§3) Chlorinated ethylenes were monitored with a Tekmar purge and trap unit (model 4000) connected to a Hewlett-Packard GC (Sunnyville, Calif.) equipped with an HP-5 cappillary column (30 m×0.53 mm×2.6 μm film thickness) and flame ionization detector. Samples (5 ml) were purged onto Tenax TA (Supelco, Bellefonte, Pa.) adsorbent with helium (30 ml/min for 16 min.), desorbed (180° C. for 4 min.), and separated using helium as a carrier at 6 ml/min. The temperature program was 30° C. for 8 min, increasing to 200° C. at 4° C./min and followed by an isothermal period of 5 min. The injection and detector temperatures were 220° C. and 300° C., respectively. PCE and its dechlorinated products were identified by comparison with authentic standards.
Data are the average of duplicate vials and […]

In test [4] the test system is Desulfomonile tiedjei cells. Nature of the test: PCE and TCE dechlorination by resuspended cells induced with 3-fluorobenzoate versus non-induced cells (Table 1, FIG. 1). It is filed as cell-based. As to conditions: for Mole % recovered, TCE / Mole % recovered, cis-DCE / Total Cl Removed: 2 μg/ml substrate, 37° C., 2 hr; for Mole % recovered, TCE / Mole % recovered, cis-DCE: average of duplicate vials; for Total Cl Removed: calculated from input concentration and Mole % recovered. On the procedure:
as §1, with “Cultures were grown using strict anaerobic technique in a synthetic minimal medium amended with vitamins (DeWeerd, et al, Arch. of Microbiol. 154, 23-30 (1990)), pyruvate at 20 mM, and reduced with 1 mM cysteine and 0.1 mM Na2 S2 O4. The concentration” for “The concentration”
as §2, with “analyzed. Protein concentrations were determined by a modification of the Lowry method (Hanson, R. S. and J. A. Phillips, In P. Gerhardt (ed.) Manual of methods for general microbiology. American Society for Microbiology, Washington, D. C. p. 328-364 (1981)).” for “analyzed.”
as §3
To further examine the transformation of both PCE and TCE and to determine if dechlorination of TCE also requires induction, a similar experiment was conducted to measure the initial transformation rates of PCE and TCE (Table 1.). […] The extent of transformation of PCE to TCE ([…] in 2H) was considerably faster than the rate of transformation of TCE to DCE ([…] in 2h), as expected from the redox potentials of these reactions (Vogel, T. M., et al., Environ. Sci. Technol. 21:722-736 (1987)) and results from mixed culture systems (Bouwer, E. J., and P. L. McCarty, Appl. Environ. Microbiol. 45:1286-1294 (1983)). The rate of transformation of PCE and TCE were much greater for the induced cultures than for the non-induced cultures.
^a suspensions were amended with PCE or TCE to a final concentration
of 2 μg/ml and incubated at 37° C. for 2 hr. Suspensions of
induced and uninduced cells contained 149 and 153 μg protein per ml
^b Data are presented as the average of duplicate vials with the
sample standard deviation in parenthesis.
^c Calculated from the input concentration of chlorinated ethylenes
and the Mole % of recovered material.

Setting [5] is: Table 4, inducers at 500 μM except 3-formylbenzoate 100 μM and 3-chlorobenzoate (amended at intervals), assay 1 mM 3-chlorobenzoate, two hours.
Where [6] appears, read: 100 μM 3-chlorobenzoate, analogue 500 μM, normalized to rate with no analogue.
Where [7] appears, read: growing cells and resuspended cells.
[8] abbreviates: Table 5, inducers initially 500 μM, 3-halo compounds amended during growth.

For the compound `O=C(O)c1cccc(F)c1` [3-fluorobenzoate], the “Induction Activity (3-chlorobenzoate dechlorination activity)” value (shortened to “Induction Activity”) in test [1] (setting [5]) worked out at 570 ± 37 nMol/hr/mg protein. In test [2] (setting [6]), the activity at 500 µM came to 114%.
Taken in the same sequence, the figures for `OCc1cccc(Cl)c1` [--CH2 OH --Cl, 3-chlorobenzyl alcohol] were 86 ± 5 nMol/hr/mg protein and 108%.
Taken in the same sequence, the figures for `O=C(O)c1cccc(C(F)(F)F)c1` [--COOH --CF3, m-trifluoromethyl benzoate] were 383 ± 6 nMol/hr/mg protein and 94%.
Taken in the same sequence, the figures for `O=C(O)c1cccc(O)c1` [--COOH --OH] were 3 ± 4 nMol/hr/mg protein and 91%.
Take `O=S(O)(O)=S` [Thiosulfate]: the “effect on dechlorination of 3CB” value in the test on dechlorination of 3CB (setting [7]) is on record as “inhibit dechlorination of 3CB”.
`C=O` [formaldehyde]: the “effect on PCE dechlorination” value in test [3] is “almost totally blocked dechlorination”.
Turning to `O=C(O)c1cccc(I)c1` [3-iodo-, m-iodobenzoate], in test [1] (setting [8]), the “Induction Activity” value is 582 ± 59 nMol/hr/mg protein.
As to `ClC=C(Cl)Cl` [TCE, trichloroethylene], in test [4] (Only cultures pre-induced with 3-fluorobenzoate), the “product formation from PCE or TCE” value is given as “measurable product formation”. Besides, in test [4] (induced (+)), the “Mole % recovered, TCE” value was 89.2 Mole %; the “Mole % recovered, cis-DCE” value is on record as 10.8 Mole %; the “Total Cl Removed” value is 11.0 μmol/g prot. in 2 h. Also, in test [4] (non-induced (-)), the “Mole % recovered, TCE” value amounted to 100.0 Mole %; the “Mole % recovered, cis-DCE” value was determined as 0.0 Mole %; the “Total Cl Removed” value is reported as 0.0 μmol/g prot. in 2 h. The “rate of transformation of TCE to DCE” value in test [4] (pre-induced with 3-fluorobenzoate) was 11 mol g protein ^-1 in 2h.
With `Cc1cccc(C(=O)O)c1` [3-methyl-benzoate], the “Induction Activity” value in test [1] (setting [5]) was found to be 409 ± 6 nMol/hr/mg protein. For the same compound, the activity at 500 µM in test [2] (setting [6]) was found to be 119%.
Regarding `O=S(O)O` [sulfite], in the test with dechlorination of 3CB (setting [7]), the “effect on dechlorination of 3CB” value is recorded as “inhibit dechlorination of 3CB”.
For `N#Cc1cccc(C(=O)O)c1` [--COOH --CN], the “Induction Activity” value in test [1] (setting [5]) turned out to be 7 ± 1 nMol/hr/mg protein. The activity at 500 µM in test [2] turned out to be 76%.
For `Nc1cccc(C(=O)O)c1` [--COOH --NH2], the “Induction Activity” value in test [1] (setting [5]) was 4 ± 1 nMol/hr/mg protein. Also, in test [2] (setting [6]), the activity at 500 µM was 78%.
As to `O=S(=O)(O)O` [Sulfate], the results for the “effect on dechlorination of 3CB” value in the test with dechlorination of 3CB (cells growing on a different medium or resuspended cells) and in the test with dechlorination of 3CB (cells growing on one medium) were “not by cells growing on a different medium or by resuspended cells” and “inhibited dechlorination of 3CB”, respectively.
Take `O=C(O)c1ccccc1Cl` [2-chloro-]: the “Induction Activity” value in test [1] (setting [8]) is listed as 0 ± 0 nMol/hr/mg protein.
Still for that read-out and setting: the same measure for `O=C(O)c1ccccc1I` [2-iodobenzoate]: 13 ± 9 nMol/hr/mg protein.
Regarding `O=C(O)c1ccc(I)cc1` [4-iodobenzoate], the “Induction Activity” value in test [1] (setting [8]) was 7 ± 10 nMol/hr/mg protein.
Turning to `O=C(O)c1ccccc1` [--COOH --H, benzoate], the activity at 500 µM in test [2] was 106%.
As for `O=Cc1cccc(C(=O)O)c1` [3-formylbenzoate], in test [1] (setting [5]), the “Induction Activity” value is reported as 8 ± 1 nMol/hr/mg protein.

The values are drawn from US5200343A, “Method for microbial dehalogenation of haloaliphatic compounds using a sulfate reducing bacteria, desulfomonile tiedjei” (Board of Trustees operating Michigan State University, priority 1991, dated 1993).
